Data from US11427604B2 (Mindset Pharma Inc., priority 2020, dated 2022).
Several values for one entry are separate records, joined by “and”; a condition that tells them apart may be missing. Equal values may be shown once.

What was measured:
[1] = Human liver microsomes stability with NADPH
Experimental: The objective of this study was to estimate in vitro metabolic stability of 1-45 in pooled human and male mouse liver microsomes. The concentrations of exemplary compounds in reaction systems were evaluated by LC-MS/MS for estimating the stability in pooled human and male mouse liver microsomes. The in vitro intrinsic clearances of test compounds were determined as well.
A master solution in the “Incubation Plate” containing phosphate buffer, ultra-pure H2O, MgCl2 solution and liver microsomes was made according to Table --. The mixture was pre-warmed at 37° C. water bath for 5 minutes.
40 μL of 10 mM NADPH solution was added to each well. The final concentration of NADPH was 1 mM. The negative control samples were prepared by replacing NADPH with 40 μL of ultra-pure H2O. Samples were prepared in duplicate. Negative controls were prepared in singlet.
The reaction was started with the addition of 4 μL of 200 μM test compounds or control compounds to each master solution to get the final concentration of 2 μM. This study was performed in duplicate.
Aliquots of 50 μL were taken from the reaction solution at 0, 15, 30, 45 and 60 minutes. The reaction solutions were stopped by the addition of 4 volumes of cold methanol with IS (100 nM alprazolam, 200 nM imipramine, 200 nM labetalol and 2 μM ketoprofen). Samples were centrifuged at 3,220 g for 40 minutes. Aliquot of 90 μL of the supernatant was mixed with 90 μL of ultra-pure H2O and then was used for LC-MS/MS analysis.
LC/MS analysis was performed for all samples from this study using a Shimadzu liquid chromatograph separation system equipped with degasser DGU-20A5R; solvent delivery unit LC-30AD; system controller SIL-30AC; column oven CTO-30A; CTC Analytics HTC PAL System. Mass spectrometric analysis was performed using an Triple Quad™ 5500 instrument.
All calculations were carried out using Microsoft Excel. Peak area ratios of test compound to internal standard (listed in the below table) were determined from extracted ion chromatograms.
All calculations were carried out using Microsoft Excel. Peak areas were determined from extracted ion chromatograms. The slope value, k, was determined by linear regression of the natural logarithm of the remaining percentage of the parent drug vs. incubation time curve.
Conversion of the in vitro t1/2 (min) into the in vitro intrinsic clearance (in vitro CLint, in μL/min/mg proteins) was done using the following equation (mean of duplicate determinations):
[formula] […] Results & Discussion

C57BL/6J mice = assay: Mouse head twitch response (HTR); assay type: in vivo; conditions: for Head Twitch 10 mins, AVG / Head Twitch 20 mins, AVG / Head Twitch 30 mins, AVG / Head Twitch 40 mins, AVG / Head Twitch 50 mins, AVG / Head Twitch 60 mins, AVG / Head Twitch Total, AVG: group mean; for Head Twitch Total, AVG: over 1 h
Experimental: Data is expressed as mean±SEM. The induction of head twitches elicited by 5-HT2A receptor agonists is believed to represent a behavioural proxy of their psychedelic effects.
The effect of different doses of exemplary compounds of Formula I were evaluated on head-twitch response (HTR) as a behavior-based model of psychedelic activity.
Male, C57BL/6J mice (body weight range 20-30 g) were dosed with the appropriate dose of test article, and following a 1-minute pre-treatment time, placed in individual observation chambers. Animals were visually assessed for the incidence head twitches continuously over a 1 hr period. Head twitches were defined as a rapid jerk of the head which was not elicited by an external tactile stimulus (Corne and Pickering, Psychopharmacologia, 1967, 11(1): 65-78). Each head twitch was individually counted by a trained observer, and the data expressed as the mean+SEM of 6-10 mice per group. Mice were used in a single experiment only.

[2H]C([2H])([2H])N(C([2H])([2H])[2H])C([2H])([2H])C([2H])([2H])c1c[nH]c2cccc(O)c12 [Compound I-45, 3-(2-(bis(methyl-d3)amino)ethyl-1,1,2,2-d4)-1H-indol-4-ol]
Remaining Percentage (%) after 60 min ([1]; Human, with NADPH, 2 μM): 73.65%
half-life at 2 μM ([1]; human, microsomes): 2.27 h
microsomal CLint at 2 μM ([1]; human, microsomes): 10.2 µL/min/mg
Head Twitch 10 mins, individual animal (C57BL/6J mice; 0.03 mg/kg SC, animals C1-C6): 0 (2×) and 1 and 3 and 2 (2×)
Head Twitch 20 mins, individual animal (C57BL/6J mice; 0.03 mg/kg SC, animals C1-C6): 0 (5×) and 1
Head Twitch 30 mins, individual animal (C57BL/6J mice; 0.03 mg/kg SC, animals C1-C6): 0
Head Twitch 40 mins, individual animal (C57BL/6J mice; 0.03 mg/kg SC, animals C1-C6): 0
Head Twitch 50 mins, individual animal (C57BL/6J mice; 0.03 mg/kg SC, animals C1-C6): 0 (5×) and 1
Head Twitch 60 mins, individual animal (C57BL/6J mice; 0.03 mg/kg SC, animals C1-C6): 0
Head Twitch Total, individual animal (C57BL/6J mice; 0.03 mg/kg SC, animals C1-C6, over 1 h): 0 and 1 (2×) and 4 and 2 (2×)
Head Twitch 10 mins, AVG (C57BL/6J mice; 0.03 mg/kg SC): 1.3
Head Twitch 20 mins, AVG (C57BL/6J mice; 0.03 mg/kg SC): 0.2
Head Twitch 30 mins, AVG (C57BL/6J mice; 0.03 mg/kg SC): 0.0
Head Twitch 40 mins, AVG (C57BL/6J mice; 0.03 mg/kg SC): 0.0
Head Twitch 50 mins, AVG (C57BL/6J mice; 0.03 mg/kg SC): 0.2
Head Twitch 60 mins, AVG (C57BL/6J mice; 0.03 mg/kg SC): 0.0
Head Twitch Total, AVG (C57BL/6J mice; 0.03 mg/kg SC): 1.7
Head Twitch 10 mins, individual animal (C57BL/6J mice; 0.1 mg/kg SC, animals P1-P10): 3 and 6 and 0 (3×) and 1 (3×) and 2 (2×)
Head Twitch 20 mins, individual animal (C57BL/6J mice; 0.1 mg/kg SC, animals P1-P10): 1 (4×) and 0 (4×) and 2 (2×)
Head Twitch 30 mins, individual animal (C57BL/6J mice; 0.1 mg/kg SC, animals P1-P10): 0 (6×) and 1 (4×)
Head Twitch 40 mins, individual animal (C57BL/6J mice; 0.1 mg/kg SC, animals P1-P10): 1 (2×) and 0 (8×)
Head Twitch 50 mins, individual animal (C57BL/6J mice; 0.1 mg/kg SC, animals P1-P10): 0 (7×) and 2 and 1 (2×)
Head Twitch 60 mins, individual animal (C57BL/6J mice; 0.1 mg/kg SC, animals P1-P10): 0
Head Twitch Total, individual animal (C57BL/6J mice; 0.1 mg/kg SC, animals P1-P10, over 1 h): 5 and 9 and 3 (3×) and 2 (3×) and 1 and 4
Head Twitch 10 mins, AVG (C57BL/6J mice; 0.1 mg/kg SC): 1.6
Head Twitch 20 mins, AVG (C57BL/6J mice; 0.1 mg/kg SC): 0.8
Head Twitch 30 mins, AVG (C57BL/6J mice; 0.1 mg/kg SC): 0.4
Head Twitch 40 mins, AVG (C57BL/6J mice; 0.1 mg/kg SC): 0.2
Head Twitch 50 mins, AVG (C57BL/6J mice; 0.1 mg/kg SC): 0.4
Head Twitch 60 mins, AVG (C57BL/6J mice; 0.1 mg/kg SC): 0.0
Head Twitch Total, AVG (C57BL/6J mice; 0.1 mg/kg SC): 3.4
Head Twitch 10 mins, individual animal (C57BL/6J mice; 0.3 mg/kg SC, animals Q1-Q10): 3 and 1 (4×) and 0 (2×) and 2 (3×)
Head Twitch 20 mins, individual animal (C57BL/6J mice; 0.3 mg/kg SC, animals Q1-Q10): 0 (4×) and 1 (6×)
Head Twitch 30 mins, individual animal (C57BL/6J mice; 0.3 mg/kg SC, animals Q1-Q10): 1 (3×) and 0 (6×) and 3
Head Twitch 40 mins, individual animal (C57BL/6J mice; 0.3 mg/kg SC, animals Q1-Q10): 0 (8×) and 1 and 2
Head Twitch 50 mins, individual animal (C57BL/6J mice; 0.3 mg/kg SC, animals Q1-Q10): 0 (8×) and 1 (2×)
Head Twitch 60 mins, individual animal (C57BL/6J mice; 0.3 mg/kg SC, animals Q1-Q10): 0
Head Twitch Total, individual animal (C57BL/6J mice; 0.3 mg/kg SC, animals Q1-Q10, over 1 h): 4 (4×) and 2 (2×) and 1 and 3 and 6 and 0
Head Twitch 10 mins, AVG (C57BL/6J mice; 0.3 mg/kg SC): 1.3
Head Twitch 20 mins, AVG (C57BL/6J mice; 0.3 mg/kg SC): 0.6
Head Twitch 30 mins, AVG (C57BL/6J mice; 0.3 mg/kg SC): 0.6
Head Twitch 40 mins, AVG (C57BL/6J mice; 0.3 mg/kg SC): 0.3
Head Twitch 50 mins, AVG (C57BL/6J mice; 0.3 mg/kg SC): 0.2
Head Twitch 60 mins, AVG (C57BL/6J mice; 0.3 mg/kg SC): 0.0
Head Twitch Total, AVG (C57BL/6J mice; 0.3 mg/kg SC): 3.0
Head Twitch 10 mins, individual animal (C57BL/6J mice; 1 mg/kg SC, animals R1-R6): 0 and 4 and 1 and 3 (3×)
Head Twitch 20 mins, individual animal (C57BL/6J mice; 1 mg/kg SC, animals R1-R6): 0 (2×) and 2 and 1 and 7 and 8
Head Twitch 30 mins, individual animal (C57BL/6J mice; 1 mg/kg SC, animals R1-R6): 1 (2×) and 0 (3×) and 3
Head Twitch 40 mins, individual animal (C57BL/6J mice; 1 mg/kg SC, animals R1-R6): 0 (4×) and 2 (2×)
Head Twitch 50 mins, individual animal (C57BL/6J mice; 1 mg/kg SC, animals R1-R6): 0
Head Twitch 60 mins, individual animal (C57BL/6J mice; 1 mg/kg SC, animals R1-R6): 0
Head Twitch Total, individual animal (C57BL/6J mice; 1 mg/kg SC, animals R1-R6, over 1 h): 1 and 6 and 2 and 3 and 15 and 14
Head Twitch 10 mins, AVG (C57BL/6J mice; 1 mg/kg SC): 2.3
Head Twitch 20 mins, AVG (C57BL/6J mice; 1 mg/kg SC): 3.0
Head Twitch 30 mins, AVG (C57BL/6J mice; 1 mg/kg SC): 0.8
Head Twitch 40 mins, AVG (C57BL/6J mice; 1 mg/kg SC): 0.7
Head Twitch 50 mins, AVG (C57BL/6J mice; 1 mg/kg SC): 0.0
Head Twitch 60 mins, AVG (C57BL/6J mice; 1 mg/kg SC): 0.0
Head Twitch Total, AVG (C57BL/6J mice; 1 mg/kg SC): 6.8
Head Twitch 10 mins, individual animal (C57BL/6J mice; 3 mg/kg SC, animals S1-S6): 1 (2×) and 3 and 2 and 6 and 0
Head Twitch 20 mins, individual animal (C57BL/6J mice; 3 mg/kg SC, animals S1-S6): 2 (2×) and 1 and 0 and 3 and 5
Head Twitch 30 mins, individual animal (C57BL/6J mice; 3 mg/kg SC, animals S1-S6): 2 (2×) and 1 (3×) and 0
Head Twitch 40 mins, individual animal (C57BL/6J mice; 3 mg/kg SC, animals S1-S6): 2 and 0 (4×) and 3
Head Twitch 50 mins, individual animal (C57BL/6J mice; 3 mg/kg SC, animals S1-S6): 1 (2×) and 0 (4×)
Head Twitch 60 mins, individual animal (C57BL/6J mice; 3 mg/kg SC, animals S1-S6): 0 (5×) and 1
Head Twitch Total, individual animal (C57BL/6J mice; 3 mg/kg SC, animals S1-S6, over 1 h): 8 and 5 and 3 and 4 and 14 and 7
Head Twitch 10 mins, AVG (C57BL/6J mice; 3 mg/kg SC): 2.2
Head Twitch 20 mins, AVG (C57BL/6J mice; 3 mg/kg SC): 2.2
Head Twitch 30 mins, AVG (C57BL/6J mice; 3 mg/kg SC): 1.2
Head Twitch 40 mins, AVG (C57BL/6J mice; 3 mg/kg SC): 0.8
Head Twitch 50 mins, AVG (C57BL/6J mice; 3 mg/kg SC): 0.3
Head Twitch 60 mins, AVG (C57BL/6J mice; 3 mg/kg SC): 0.2
Head Twitch Total, AVG (C57BL/6J mice; 3 mg/kg SC): 6.8
Head Twitch 10 mins, individual animal (C57BL/6J mice; 10 mg/kg SC, animals T1-T6): 3 and 1 (2×) and 0 (3×)
Head Twitch 20 mins, individual animal (C57BL/6J mice; 10 mg/kg SC, animals T1-T6): 1 (2×) and 0 (4×)
Head Twitch 30 mins, individual animal (C57BL/6J mice; 10 mg/kg SC, animals T1-T6): 0
Head Twitch 40 mins, individual animal (C57BL/6J mice; 10 mg/kg SC, animals T1-T6): 0 (4×) and 1 (2×)
Head Twitch 50 mins, individual animal (C57BL/6J mice; 10 mg/kg SC, animals T1-T6): 0
Head Twitch 60 mins, individual animal (C57BL/6J mice; 10 mg/kg SC, animals T1-T6): 0 (5×) and 3
Head Twitch Total, individual animal (C57BL/6J mice; 10 mg/kg SC, animals T1-T6, over 1 h): 4 and 2 and 5 and 0 (2×) and 1
Head Twitch 10 mins, AVG (C57BL/6J mice; 10 mg/kg SC): 0.8
Head Twitch 20 mins, AVG (C57BL/6J mice; 10 mg/kg SC): 0.3
Head Twitch 30 mins, AVG (C57BL/6J mice; 10 mg/kg SC): 0.0
Head Twitch 40 mins, AVG (C57BL/6J mice; 10 mg/kg SC): 0.3
Head Twitch 50 mins, AVG (C57BL/6J mice; 10 mg/kg SC): 0.0
Head Twitch 60 mins, AVG (C57BL/6J mice; 10 mg/kg SC): 0.5
Head Twitch Total, AVG (C57BL/6J mice; 10 mg/kg SC): 2.0
head twitch frequency compared to vehicle control (C57BL/6J mice; 0.3-10 mg/kg SC, measured over 1 h): dose dependent increase
